The values that follow come from PubChem BioAssay AID256 (DTP/NCI, 2004).

This assay deals with CD2F1 mice, L1210 leukemia ip, survival T/C. The experiment in a line: NCI In Vivo Anticancer Drug Screen. Data for tumor model L1210 Leukemia (intraperitoneal) in CD2F1 (CDF1) mice. The settings on record: endpoint: mean survival time, higher = longer survival. The procedure, abridged:
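Each value reflects a quotient of treated over vehicle control outcomes in mice with a transplanted tumor.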

[1] abbreviates: dose: 50.0 mg/kg/injection, schedule: Q01DX009 (ip), vehicle: saline with Tween-80.
The mark [2] stands for this setting: dose: 100.0 mg/kg/injection, schedule: Q01DX009 (ip), vehicle: saline with Tween-80.
Setting [3] is: dose: 200.0 mg/kg/injection, schedule: Q01DX009 (ip), vehicle: saline with Tween-80.
[4] abbreviates: dose: 100.0 mg/kg/injection, schedule: Q04DX003 (ip), vehicle: saline with Tween-80.
Setting [5] is: dose: 200.0 mg/kg/injection, schedule: Q04DX003 (ip), vehicle: saline with Tween-80.
Where [6] appears, read: dose: 400.0 mg/kg/injection, schedule: Q04DX003 (ip), vehicle: saline with Tween-80.
[7] abbreviates: dose: 100.0 mg/kg/injection, schedule: Q01DX001 (ip), vehicle: saline.
The mark [8] stands for this setting: dose: 200.0 mg/kg/injection, schedule: Q01DX001 (ip), vehicle: saline.
Where [9] appears, read: dose: 400.0 mg/kg/injection, schedule: Q01DX001 (ip), vehicle: saline.

Each structure is given as a SMILES string. Values joined by “and” are separate entries in the source; they are usually repeats but may differ in a detail not shown here. Equal entries are not always repeated. Toxic doses and inconclusive results are not listed.

As for `CC1CCC2NCCCC2C1` (configuration not stated), the T/C (dose: 5.0 mg/kg/injection, schedule: Q04DX002 (ip), vehicle: saline) is 98 % of control; the T/C (dose: 10.0 mg/kg/injection, schedule: Q04DX002 (ip), vehicle: saline) was 95 % of control; the T/C (dose: 20.0 mg/kg/injection, schedule: Q04DX002 (ip), vehicle: saline) was 98 % of control.

In the case of `CN=NNc1ccc(C(N)=O)cc1`, the T/C (dose: 18.75 mg/kg/injection, schedule: Q01DX009 (ip), vehicle: saline) is 100 % of control; the T/C (dose: 37.5 mg/kg/injection, schedule: Q01DX009 (ip), vehicle: saline) was 109 % of control; the T/C (dose: 75.0 mg/kg/injection, schedule: Q01DX009 (ip), vehicle: saline) was 101 % of control; the T/C (dose: 150.0 mg/kg/injection, schedule: Q01DX009 (ip), vehicle: saline) is 96 % of control; the T/C (dose: 300.0 mg/kg/injection, schedule: Q01DX009 (ip), vehicle: saline) is 100 % of control.

As for `Cc1cc2nc3c4ccccc4n(C)c3nc2cc1C`, the T/C runs as follows: (dose: 50.0 mg/kg/injection, schedule: Q01DX009 (sc), vehicle: Klucel (hydroxypropylcellulose) (HPC)) 101 % of control; (dose: 100.0 mg/kg/injection, schedule: Q01DX009 (sc), vehicle: Klucel (hydroxypropylcellulose) (HPC)) 104 % of control; (dose: 200.0 mg/kg/injection, schedule: Q01DX009 (sc), vehicle: Klucel (hydroxypropylcellulose) (HPC)) 104 % of control.

As to `COc1cc2c(cc1O)CCCC=C2C1CCCCc2cc(O)c(OC)cc21` (configuration not stated), the T/C runs as follows: under setting [1], 96 % of control; under setting [2], 103 % of control; under setting [3], 96 % of control.

With `CC(Br)C(=O)NC(C)C(=O)O` (configuration not stated), the T/C under setting [4] was 92 % of control, the T/C under setting [5] is 108 % of control and the T/C under setting [6] was 121 % of control.

`Nc1nc(-c2ccccc2)c(Br)c(=O)[nH]1`: the T/C runs as follows: under setting [4], 104 % of control; under setting [5], 96 % of control; under setting [6], 93 % of control.

Take `NC(=O)COS(=O)(=O)O`: the T/C is 104 % of control (dose: 100.0 mg/kg/injection, schedule: Q01DX009 (ip), vehicle: saline); 104 % of control (dose: 200.0 mg/kg/injection, schedule: Q01DX009 (ip), vehicle: saline); 108 % of control (dose: 400.0 mg/kg/injection, schedule: Q01DX009 (ip), vehicle: saline).

On to `COC1=CC(=O)c2ccccc2C1=O`, for which the T/C reads like this: under setting [4], 91 % of control; under setting [5], 87 % of control.

`CCCCc1ccc(-n2c(C)c(COC(=O)NC)c(COC(=O)NC)c2C)cc1`: the T/C reads like this: (dose: 1.56 mg/kg/injection, schedule: Q01DX009 (ip), vehicle: Klucel (hydroxypropylcellulose) (HPC)) 113 % of control and 112 % of control; (dose: 3.12 mg/kg/injection, schedule: Q01DX009 (ip), vehicle: Klucel (hydroxypropylcellulose) (HPC)) 117 % of control and 110 % of control; (dose: 6.25 mg/kg/injection, schedule: Q01DX009 (ip), vehicle: Klucel (hydroxypropylcellulose) (HPC)) 117 % of control and 110 % of control; (dose: 12.5 mg/kg/injection, schedule: Q01DX009 (ip), vehicle: Klucel (hydroxypropylcellulose) (HPC)) 124 % of control and 103 % of control; (dose: 25.0 mg/kg/injection, schedule: Q01DX009 (ip), vehicle: Klucel (hydroxypropylcellulose) (HPC)) 120 % of control; (dose: 50.0 mg/kg/injection, schedule: Q01DX009 (ip), vehicle: Klucel (hydroxypropylcellulose) (HPC)) 122 % of control and 109 % of control.

Turning to `CN1C(=O)C=C(C=Nc2ccc(-c3ccccc3)cc2)C2CCCCC21` (configuration not stated), the T/C runs as follows: under setting [4], 106 % of control; under setting [5], 98 % of control; under setting [6], 97 % of control.

Consider `CCC1(O)CC2CN(CCc3c([nH]c4ccccc34)C(C(=O)OC)(c3cc4c(cc3OC)N(C)C3C(O)(C(N)=O)C(O)C5(CC)C=CCN6CCC43C65)C2)C1` (configuration not stated) (tested in a mixture with another compound), for which the T/C was 121 % of control (dose: 0.13 mg/kg/injection, schedule: Q01DX009 (ip), vehicle: water); 123 % of control (dose: 0.22 mg/kg/injection, schedule: Q01DX009 (ip), vehicle: water); 121 % of control (dose: 0.23 mg/kg/injection, schedule: Q04DX003 (ip), vehicle: water); 122 % of control (dose: 0.36 mg/kg/injection, schedule: Q01DX009 (ip), vehicle: water); 124 % of control (dose: 0.39 mg/kg/injection, schedule: Q04DX003 (ip), vehicle: water); 106 % of control (dose: 0.52 mg/kg/injection, schedule: Q04DX003 (ip), vehicle: water). In addition, the T/C by setting is: (dose: 1.44 mg/kg/injection, schedule: Q04DX003 (ip), vehicle: water) 112 % of control; (dose: 1.8 mg/kg/injection, schedule: Q04DX003 (ip), vehicle: water) 164 % of control; (dose: 4.0 mg/kg/injection, schedule: Q04DX003 (ip), vehicle: water) 104 % of control; (dose: 130.0 micrograms/kg/injection, schedule: Q01DX009 (ip), vehicle: water) 102 % of control; (dose: 216.0 micrograms/kg/injection, schedule: Q01DX009 (ip), vehicle: water) 107 % of control; (dose: 360.0 micrograms/kg/injection, schedule: Q01DX009 (ip), vehicle: water) 113 % of control. Moreover, the T/C runs as follows: (dose: 600.0 micrograms/kg/injection, schedule: Q01DX009 (ip), vehicle: water) 120 % of control; (dose: 1000.0 micrograms/kg/injection, schedule: Q01DX009 (ip), vehicle: water) 122 % of control.

For `N#CN=C([S-])[S-].N#CN=C([S-])[S-].[Cu]`, the T/C reads like this: (dose: 12.5 mg/kg/injection, schedule: Q04DX003 (ip), vehicle: acetone) 93 % of control; (dose: 25.0 mg/kg/injection, schedule: Q04DX003 (ip), vehicle: acetone) 94 % of control.

`Nc1nc(=S)c2[nH]c(-c3ccccc3)nc2[nH]1`: the T/C was 96 % of control (dose: 12.5 mg/kg/injection, schedule: Q01DX005 (ip), vehicle: other); 90 % of control (dose: 25.0 mg/kg/injection, schedule: Q01DX005 (ip), vehicle: other); 93 % of control (dose: 50.0 mg/kg/injection, schedule: Q01DX005 (ip), vehicle: other); 93 % of control (dose: 100.0 mg/kg/injection, schedule: Q01DX005 (ip), vehicle: other); 90 % of control (dose: 200.0 mg/kg/injection, schedule: Q01DX005 (ip), vehicle: other).

On to `C=C(C)CCCC(C)C(O)C=O` (configuration not stated), for which the T/C is, setting by setting: under setting [7], 98 % of control; under setting [8], 95 % of control; under setting [9], 95 % of control.

`CC(=O)N(CC(=O)O)c1ccccc1`: the T/C runs as follows: under setting [2], 98 % of control; under setting [3], 96 % of control; (dose: 400.0 mg/kg/injection, schedule: Q01DX009 (ip), vehicle: saline with Tween-80) 96 % of control.

For the compound `CC(=O)n1cc(CS)c(=O)[nH]c1=O`, the T/C (dose: 5.0 mg/kg/injection, schedule: Q01DX001 (ip), vehicle: saline) was 105 % of control; the T/C (dose: 10.0 mg/kg/injection, schedule: Q01DX001 (ip), vehicle: saline) was 98 % of control; the T/C (dose: 20.0 mg/kg/injection, schedule: Q01DX001 (ip), vehicle: saline) was 105 % of control; the T/C (dose: 40.0 mg/kg/injection, schedule: Q01DX001 (ip), vehicle: saline) was 105 % of control; the T/C (dose: 80.0 mg/kg/injection, schedule: Q01DX001 (ip), vehicle: saline) is 105 % of control.

For the compound `O=C(O)c1cccc([N+](=O)[O-])c1C(=O)c1ccccc1`, the T/C reads like this: under setting [2], 107 % of control; under setting [3], 102 % of control.

For the compound `CC1(C)N=C(N)N=C(N)N1c1cccc(CCCCOc2ccccc2)c1`, the T/C (dose: 6.25 mg/kg/injection, schedule: Q01DX009 (ip), vehicle: saline with Tween-80) was 101 % of control; the T/C (dose: 12.5 mg/kg/injection, schedule: Q01DX009 (ip), vehicle: saline with Tween-80) was 111 % of control; the T/C (dose: 25.0 mg/kg/injection, schedule: Q01DX009 (ip), vehicle: saline with Tween-80) was 108 % of control.

Take `Nc1ccc2c(Cl)cc(Cl)cc2c1`: the T/C under setting [1] is 102 % of control; the T/C under setting [2] is 103 % of control; the T/C under setting [4] is 98 % of control; the T/C under setting [3] is 96 % of control; the T/C under setting [5] is 91 % of control.

`CC(C)(C)CC(C)(C)c1ccc(OCCOc2ccc(S(=O)(=O)O)cc2[N+](=O)[O-])cc1`: the T/C was 102 % of control under setting [7], 102 % of control under setting [8] and 98 % of control under setting [9].

Take `Clc1c(Cl)c(Cl)c(C(c2c(Cl)c(Cl)c(Cl)c(Cl)c2Cl)c2c(Cl)c(Cl)c(Cl)c(Cl)c2Cl)c(Cl)c1Cl`: the T/C runs as follows: under setting [4], 98 % of control; under setting [5], 98 % of control; under setting [6], 110 % of control.
